Experimental data published in PubChem BioAssay AID192 (DTP/NCI, 2004).
Several values for one entry are separate records, joined by “and”; a condition that tells them apart may be missing. Equal entries are not always repeated. Toxic doses and inconclusive results are not listed. How the source made its calls: active means survival T/C of 150% or more; inactive means T/C below 125% in these data. Square brackets hold non-standard residues; d marks the D form. Peptide text beside a SMILES is read from it. * marks the point of attachment. ξ: configuration not given here. ξF = NC(Cc1ccccc1)C(=O)O; Cbz = O=C(OCc1ccccc1)*; Sar = CNCC(=O)O

Tested on: BDF1 mice, B16 melanoma ip, median survival T/C
Assay: NCI In Vivo Anticancer Drug Screen. Data for tumor model B16 Melanoma (intraperitoneal) in B6D2F1 (BDF1) mice
Details: endpoint: median survival time, higher = longer survival
How it was run: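 Vehicle-treated animals serve as the reference (C); treated animals (T) are scored for survival or tumor size after tumor transplantation.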

[1] = dose: 25.0 mg/kg/injection, schedule: Q01DX009 (ip), vehicle: saline
[2] = dose: 50.0 mg/kg/injection, schedule: Q01DX009 (ip), vehicle: saline
[3] = dose: 100.0 mg/kg/injection, schedule: Q01DX009 (ip), vehicle: saline
[4] = dose: 50.0 mg/kg/injection, schedule: Q01DX009 (ip), vehicle: saline with Tween-80
[5] = dose: 100.0 mg/kg/injection, schedule: Q01DX009 (ip), vehicle: Klucel (hydroxypropylcellulose) (HPC)
[6] = dose: 200.0 mg/kg/injection, schedule: Q01DX009 (ip), vehicle: Klucel (hydroxypropylcellulose) (HPC)
[7] = dose: 400.0 mg/kg/injection, schedule: Q01DX009 (ip), vehicle: Klucel (hydroxypropylcellulose) (HPC)
[8] = dose: 100.0 mg/kg/injection, schedule: Q01DX009 (ip), vehicle: saline with Tween-80
[9] = dose: 200.0 mg/kg/injection, schedule: Q01DX009 (ip), vehicle: saline with Tween-80

Measured: T/C

CC(C)(CO)C(O)C(=O)NNCc1ccccc1 (stereo not given)
inactive: dose: 25.0 mg/kg/injection, schedule: Q04DX003 (ip), vehicle: Klucel (hydroxypropylcellulose) (HPC) 102 % of control | dose: 25.0 mg/kg/injection, schedule: Q04DX003 (ip), vehicle: saline 95 % of control | dose: 50.0 mg/kg/injection, schedule: Q04DX003 (ip), vehicle: Klucel (hydroxypropylcellulose) (HPC) 90 % of control | dose: 50.0 mg/kg/injection, schedule: Q04DX003 (ip), vehicle: saline 99 % of control | dose: 100.0 mg/kg/injection, schedule: Q04DX003 (ip), vehicle: saline 100 % of control | dose: 200.0 mg/kg/injection, schedule: Q04DX003 (ip), vehicle: Klucel (hydroxypropylcellulose) (HPC) 92 % of control | dose: 200.0 mg/kg/injection, schedule: Q04DX003 (ip), vehicle: saline 100 % of control | dose: 400.0 mg/kg/injection, schedule: Q04DX003 (ip), vehicle: Klucel (hydroxypropylcellulose) (HPC) 95 % of control | dose: 400.0 mg/kg/injection, schedule: Q04DX003 (ip), vehicle: saline 91 % of control

NC(=S)N/N=C/c1ccc(O)cn1
inactive: dose: 9.4 mg/kg/injection, schedule: Q01DX009 (ip), vehicle: saline with Tween-80 103 % of control | dose: 12.5 mg/kg/injection, schedule: Q01DX009 (ip), vehicle: saline 108 % of control | dose: 18.8 mg/kg/injection, schedule: Q01DX009 (ip), vehicle: saline with Tween-80 102 % of control and 119 % of control and 121 % of control | [1] 110 % of control | dose: 37.5 mg/kg/injection, schedule: Q01DX009 (ip), vehicle: saline with Tween-80 109 % of control and 111 % of control and 120 % of control | [2] 113 % of control and 122 % of control | dose: 75.0 mg/kg/injection, schedule: Q01DX009 (ip), vehicle: saline with Tween-80 114 % of control and 121 % of control and 124 % of control | [3] 115 % of control and 120 % of control | dose: 150.0 mg/kg/injection, schedule: Q01DX009 (ip), vehicle: saline with Tween-80 105 % of control and 115 % of control

CCC1(O)CC(OC2CC(N(C)C)C(OC3CC(O)C(OC4CCC(=O)C(C)O4)C(C)O3)C(C)O2)c2c(cc3c(c2O)C(=O)c2c(O)ccc(O)c2C3=O)C1C(=O)OC (stereo not given)
inactive: dose: 0.23 mg/kg/injection, schedule: Q01DX009 (ip), vehicle: saline with Tween-80 98 % of control | dose: 3.6 mg/kg/injection, schedule: Q01DX001 (ip), vehicle: water 101 % of control and 109 % of control | dose: 6.0 mg/kg/injection, schedule: Q01DX001 (ip), vehicle: water 106 % of control and 112 % of control | dose: 10.0 mg/kg/injection, schedule: Q01DX001 (ip), vehicle: water 111 % of control

CC(O)c1cccnc1 (stereo not given)
inactive: dose: 10.0 mg/kg/injection, schedule: Q01DX009 (ip), vehicle: saline 122 % of control | dose: 20.0 mg/kg/injection, schedule: Q01DX009 (ip), vehicle: saline 116 % of control | dose: 40.0 mg/kg/injection, schedule: Q01DX009 (ip), vehicle: saline 122 % of control

COc1cc2c(cc1OC)C(OC)N(C)c1c-2ccc2cc(OC)c(OC)cc12 (stereo not given)
inactive: dose: 37.5 mg/kg/injection, schedule: Q01DX009 (ip), vehicle: Klucel (hydroxypropylcellulose) (HPC) 98 % of control | dose: 75.0 mg/kg/injection, schedule: Q01DX009 (ip), vehicle: Klucel (hydroxypropylcellulose) (HPC) 95 % of control | dose: 150.0 mg/kg/injection, schedule: Q01DX009 (ip), vehicle: Klucel (hydroxypropylcellulose) (HPC) 100 % of control | dose: 300.0 mg/kg/injection, schedule: Q01DX009 (ip), vehicle: Klucel (hydroxypropylcellulose) (HPC) 100 % of control

COC1=C(N)C(=O)c2nc(-c3nc(C(=O)O)c(C)c(-c4ccc(OC)c(OC)c4O)c3N)ccc2C1=O
inactive: dose: 0.03 mg/kg/injection, schedule: Q01DX009 (ip), vehicle: saline 113 % of control | dose: 0.05 mg/kg/injection, schedule: Q01DX009 (ip), vehicle: saline 102 % of control | dose: 0.1 mg/kg/injection, schedule: Q01DX009 (ip), vehicle: saline 102 % of control | dose: 0.2 mg/kg/injection, schedule: Q01DX009 (ip), vehicle: saline 113 % of control | dose: 0.4 mg/kg/injection, schedule: Q01DX009 (ip), vehicle: saline 100 % of control | dose: 25.0 micrograms/kg/injection, schedule: Q01DX009 (ip), vehicle: saline 100 % of control | dose: 50.0 micrograms/kg/injection, schedule: Q01DX009 (ip), vehicle: saline 111 % of control | dose: 100.0 micrograms/kg/injection, schedule: Q01DX009 (ip), vehicle: saline 112 % of control | dose: 200.0 micrograms/kg/injection, schedule: Q01DX009 (ip), vehicle: saline 104 % of control

Nc1ncnc2c1ncn2C1OC(CO)C(O)C1O (stereo not given)
inactive: dose: 18.7 mg/kg/injection, schedule: Q01DX009 (ip), vehicle: saline 96 % of control | dose: 32.0 mg/kg/injection, schedule: Q01DX009 (ip), vehicle: Klucel (hydroxypropylcellulose) (HPC) 99 % of control and 105 % of control | dose: 37.5 mg/kg/injection, schedule: Q01DX009 (ip), vehicle: saline 99 % of control | dose: 64.0 mg/kg/injection, schedule: Q01DX009 (ip), vehicle: Klucel (hydroxypropylcellulose) (HPC) 98 % of control and 101 % of control | dose: 75.0 mg/kg/injection, schedule: Q01DX009 (ip), vehicle: saline 98 % of control | dose: 128.0 mg/kg/injection, schedule: Q01DX009 (ip), vehicle: Klucel (hydroxypropylcellulose) (HPC) 99 % of control and 101 % of control | dose: 150.0 mg/kg/injection, schedule: Q01DX009 (ip), vehicle: saline 121 % of control | dose: 256.0 mg/kg/injection, schedule: Q01DX009 (ip), vehicle: Klucel (hydroxypropylcellulose) (HPC) 97 % of control and 98 % of control | dose: 512.0 mg/kg/injection, schedule: Q01DX009 (ip), vehicle: Klucel (hydroxypropylcellulose) (HPC) 93 % of control and 101 % of control | dose: 600.0 mg/kg/injection, schedule: Q01DX009 (ip), vehicle: saline 123 % of control

Cc1cc(Cl)ccc1NC(=O)COc1ccc(Cl)cc1
inactive: dose: 3.13 mg/kg/injection, schedule: Q01DX009 (ip), vehicle: saline with Tween-80 104 % of control | dose: 6.25 mg/kg/injection, schedule: Q01DX009 (ip), vehicle: saline with Tween-80 98 % of control | dose: 12.5 mg/kg/injection, schedule: Q01DX009 (ip), vehicle: saline with Tween-80 88 % of control and 95 % of control | dose: 25.0 mg/kg/injection, schedule: Q01DX009 (ip), vehicle: saline with Tween-80 93 % of control | [4] 91 % of control

CCCNC(C)(C)C(SSS)c1cccs1 (stereo not given)
inactive: dose: 4.68 mg/kg/injection, schedule: Q04DX003 (ip), vehicle: saline 97 % of control | dose: 6.25 mg/kg/injection, schedule: Q01DX009 (ip), vehicle: alcohol 111 % of control | dose: 9.37 mg/kg/injection, schedule: Q04DX003 (ip), vehicle: saline 106 % of control | dose: 12.5 mg/kg/injection, schedule: Q01DX009 (ip), vehicle: alcohol 100 % of control | dose: 18.75 mg/kg/injection, schedule: Q04DX003 (ip), vehicle: saline 107 % of control | dose: 25.0 mg/kg/injection, schedule: Q01DX009 (ip), vehicle: alcohol 95 % of control | dose: 50.0 mg/kg/injection, schedule: Q01DX009 (ip), vehicle: alcohol 91 % of control

O=C(Nc1nccs1)Nc1ccccc1C(F)(F)F
inactive: dose: 25.0 mg/kg/injection, schedule: Q01DX009 (ip), vehicle: Klucel (hydroxypropylcellulose) (HPC) 103 % of control | dose: 50.0 mg/kg/injection, schedule: Q01DX009 (ip), vehicle: Klucel (hydroxypropylcellulose) (HPC) 99 % of control | [5] 97 % of control | [6] 103 % of control | [7] 99 % of control

C=CC1CN2CCC1CC2C(O)c1ccnc2ccc(OC)cc12 (stereo not given) (tested in a mixture with another compound)
inactive: [4] 107 % of control | [8] 107 % of control | [9] 101 % of control

C/C=C(/C)C(=O)O[C@H]1CC[N+]2([O-])CC=C(COC(=O)[C@@](O)([C@H](C)OC)C(C)(C)O)[C@H]12 (stereo not given in full)
inactive: [1] 95 % of control | [2] 97 % of control | [3] 107 % of control | dose: 200.0 mg/kg/injection, schedule: Q01DX009 (ip), vehicle: saline 100 % of control

Cn1cnc2c1c(=O)[nH]c(=O)n2C
inactive: [5] 109 % of control | [6] 111 % of control | [7] 109 % of control

OC(Cc1nc(-c2ccccc2)c(-c2ccccc2)s1)(C(F)(F)F)C(F)(F)F
inactive: dose: 100.0 mg/kg/injection, schedule: Q04DX003 (ip), vehicle: saline with Tween-80 105 % of control | dose: 200.0 mg/kg/injection, schedule: Q04DX003 (ip), vehicle: saline with Tween-80 86 % of control

CN(CC(=O)NC(Cc1ccccc1)C(=O)O)C(=O)OCc1ccccc1 (stereo not given) (Cbz-[Sar]-[ξF]-OH)
inactive: [4] 97 % of control | [8] 96 % of control | [9] 103 % of control
